Measured values published in PMC9718554, “Discovery of a fragment hit compound targeting D-Ala:D-Ala ligase of bacterial peptidoglycan biosynthesis” (Journal of Enzyme Inhibition and Medicinal Chemistry, 2022).

Target: T1, E. coli DdlB enzyme (D-alanine:D-alanine ligase) (Escherichia coli, UniProt P07862)
T1 construct: made in house; host or cells: E. coli
Assay: biochemical
Details: fragment library screening; tested concentration 1.8 mM; read-out: DdlB RA

Structure (SMILES)	remaining activity at 1800 µM [%]
O=C(O)C1CCN(c2ccc(C(F)(F)F)cn2)CC1 [FF30-0262]	92

Same assay, conditions: read-out: DdlB RA

Structure (SMILES)	remaining activity at 2500 µM [%]
N#Cc1nc[nH]c1C#N [FLD004]	100
Cc1ccc(N)c(O)c1 [FLD023]	100
[C-]#[N+]CS(=O)(=O)c1ccc(C)cc1 [FLD035]	100
Nc1ccc(F)c(Cl)c1 [FLD050]	98
O=C1CC[C@H](C(=O)O)O1 [FLD057]	100
Nc1ncccc1C(=O)O [FLD088]	98
Nc1cccc(C(F)(F)F)n1 [FLD091]	100
Oc1ccccc1 [FLD105]	95
N[C@H](c1ccccc1)[C@@H](N)c1ccccc1 [FLD112]	100

Same assay, conditions: residual activity of DdlB, fragment library screening, tested concentration 3.0 mM; read-out: DdlB RA

Structure (SMILES)	remaining activity at 3000 µM [%]
O=c1cc(N2CCOCC2)cn[nH]1 [FF20-1495]	88

Same assay, conditions: residual activity of DdlB; fragment library screening; tested concentration 2.5 mM; read-out: DdlB RA

Structure (SMILES)	remaining activity at 2500 µM [%]
CC(=O)Oc1cccc(C(=O)O)c1 [FLD001]	100
O=c1[nH][nH]c2ccccc12 [FLD002]	89
O=C(O)Cc1ccsc1 [FLD003]	100
O=C(O)c1n[nH]c2ccccc12 [FLD005]	97
COC(=O)c1ccccc1C(=O)O [FLD006]	89
NC(=O)c1cnccn1 [FLD007]	100
COc1ccc2c(c1)C(=O)CCC2 [FLD008]	100
Oc1cccc2[nH]ccc12 [FLD010]	100
O=C(O)c1c[nH]cn1 [FLD011]	100
COc1cc(C#N)ccc1C [FLD012]	51
COc1ccc2ccc(O)cc2c1 [FLD013]	73
Cc1cc(N)no1 [FLD014]	104
CC(=O)c1ccc([N+](=O)[O-])cc1 [FLD015]	100
NC(=O)Nc1ccccc1 [FLD016]	99
NC(=O)NC(=O)Cc1ccccc1 [FLD017]	100
Cc1nc(-c2ccc(C(=O)O)cc2)cs1 [FLD018]	99
CC(Oc1ccccc1)C(=O)O (centres unmarked) [FLD019]	99
O=C(O)c1ccc(-n2ccnc2)cc1 [FLD020]	96
Cc1c[nH]c(=O)[nH]c1=O [FLD021]	91
O=C1CNC(=S)N1 [FLD022]	98
Cc1nc(-c2ccncc2)sc1C(=O)O [FLD024]	96
Cc1ccc(C(=N)N)cc1 [FLD025]	100
O=C(O)c1ccc(-c2cnco2)cc1 [FLD026]	87
COc1cc(O)cc(OC)c1OC [FLD027]	98

Structure (SMILES)	remaining activity at 2500 µM [%]
O=C1CCC(C(=O)O)N1 (centres unmarked) [FLD028]	100
O=C1COc2cc(O)ccc21 [FLD029]	100
COc1ccc(-c2ccc(C(=O)O)o2)cc1 [FLD030]	100
NC(=O)c1cccnc1 [FLD031]	100
Nc1cc(Cl)ccc1O [FLD032]	100
Cc1ccccc1C(=O)NCC(=O)O [FLD033]	100
O=C(O)c1ccc[nH]1 [FLD034]	100
Cc1cc(N)on1 [FLD036]	97
Cc1cc(Cl)ccc1O [FLD037]	85
O=C(O)C1Cc2ccccc2N1 (centres unmarked) [FLD038]	81
O=C(O)[C@H](O)Cc1ccccc1 [FLD039]	93
c1cnc2c(c1)ccc1cccnc12 [FLD040]	74
O=C1CNC(=O)N1 [FLD041]	95
Nc1cc(O)[nH]n1 [FLD042]	100
NC(=O)c1ccccc1N [FLD043]	98
NOCc1ccccc1 [FLD044]	94
Oc1ccc(OCc2ccccc2)cc1 [FLD045]	100
Cc1cc(Cl)nc(N)n1 [FLD046]	79
Nc1cc(F)c(F)cc1C(=O)O [FLD047]	92
COc1cc(N)c(C#N)cc1OC [FLD048]	100
COc1nc(Cl)nc(OC)n1 [FLD049]	95
Cc1ccc(C#N)c(O)n1 [FLD051]	97
Nc1ccc(Cl)nn1 [FLD052]	96
Nc1cc[nH]c(=O)n1 [FLD053]	100

Structure (SMILES)	remaining activity at 2500 µM [%]
Nc1cccc2ncccc12 [FLD054]	94
O=C(O)Cc1ccncc1 [FLD055]	96
O=C(O)c1ccc(CN2CCCCC2)cc1 [FLD056]	100
O=C1CNCCN1 [FLD058]	100
N=C1NC(=O)CS1 [FLD059]	99
O=C(O)c1ccccc1Br [FLD060]	100
Nc1cccc([N+](=O)[O-])c1 [FLD061]	98
O=C(O)c1ccc(F)cc1 [FLD062]	98
CC(=O)Nc1cccc(C)c1 [FLD063]	100
CCOc1ccc(NC(C)=O)cc1 [FLD064]	98
OCc1cccc(Oc2ccccc2)c1 [FLD065]	100
O=C(O)C(c1ccccc1)c1ccccc1 [FLD066]	100
NS(=O)(=O)c1ccc(Cl)s1 [FLD067]	100
O=C(O)c1ccc2cc(O)ccc2c1 [FLD068]	94
Nc1ccc(-c2ccc(N)cc2)cc1 [FLD069]	70
CN(C)c1ccc(C(=O)O)cc1 [FLD070]	93
O=C(O)c1cccc(Cl)c1 [FLD071]	100
Cc1ccc(O)c(C(=O)O)c1 [FLD072]	99
C/C=C/c1ccc(OC)cc1 [FLD073]	100
Nc1ccc2ccccc2c1 [FLD074]	89
Cc1ccc(N)c(N)c1 [FLD075]	90
Oc1cccc(-c2ccccc2)c1 [FLD076]	98
OC1CCCc2ccccc21 (centres unmarked) [FLD077]	99
Nc1csc2nccnc12 [FLD078]	100

Structure (SMILES)	remaining activity at 2500 µM [%]
S=c1[nH]ncs1 [FLD079]	81
Nc1ccc(Cl)cc1 [FLD080]	100
Cc1cc(=O)n(-c2ccccc2)n1C [FLD081]	100
O=C(O)Cc1cccnc1 [FLD083]	98
Nc1ncncn1 [FLD084]	98
Nc1cccc(O)c1 [FLD085]	100
Cc1cccc(N)c1C#N [FLD086]	100
Cc1ccnc(N)c1 [FLD087]	100
COc1cnc(N)nc1 [FLD089]	100
Cc1cc(N)ccn1 [FLD090]	100
O=[N+]([O-])c1ccc(O)c(Cl)c1 [FLD092]	97
O=C(c1ccc(O)cc1)c1ccc(O)cc1 [FLD093]	97
Cc1cc(C(=O)O)n(C)n1 [FLD094]	96
Clc1ccc(Cl)nn1 [FLD095]	98
O=C(O)c1ccco1 [FLD096]	95
O=C(O)c1cc(O)ccc1Cl [FLD097]	94
CCOC(=O)Nc1ccccc1 [FLD098]	96
CCOc1ccc(O)cc1 [FLD099]	100
Cc1nc(C(=O)O)cs1 [FLD100]	93
CC(=O)NC1CCC(=O)CC1 [FLD101]	98
CNC(C)C(O)c1ccccc1 (centres unmarked) [FLD102]	97
Nc1ncn[nH]1 [FLD103]	95
CCc1occc(=O)c1O [FLD104]	86
CCOC(=O)c1[nH]cnc1C [FLD106]	100

Structure (SMILES)	remaining activity at 2500 µM [%]
NC(=S)Nc1ccc(F)cc1 [FLD107]	95
O=C(O)c1cc2ccccc2oc1=O [FLD109]	96
NS(=O)(=O)c1ccccc1 [FLD110]	110
Nc1cccc(N)c1 [FLD111]	92
N#Cc1ccccc1Br [FLD114]	99
Cc1ccc(C)c(S(=O)(=O)O)c1 [FLD115]	94
N#CCc1ccc(C(F)(F)F)cc1 [FLD116]	94
Clc1cc(Cl)ncn1 [FLD117]	97
Nc1ccc(Br)cc1N [FLD118]	90
Cc1cc(C)nc(NC#N)n1 [FLD119]	100
COc1cc(N)ccn1 [FLD120]	97
OCc1ccc(Br)cc1 [FLD122]	96
N#Cc1cncc(Br)c1 [FLD123]	97
N#Cc1ccc(N2CCCNCC2)nc1 [FLD124]	62
Nc1ncccc1O [FLD125]	97
Nc1nnc(C2CC2)s1 [FLD126]	80
O=C1N[C@@H](c2ccccc2)CO1 [FLD127]	99
CSc1nc(N)n[nH]1 [FLD128]	97
CC(=O)Nc1ccccc1C(=O)O [FLD129]	98
Cc1cc(C)[nH]n1 [FLD130]	100
Nc1cccc(CC(=O)O)c1 [FLD131]	97

Same assay, conditions: tested concentration 1.9 mM; read-out: DdlB RA

Structure (SMILES)	remaining activity at 1900 µM [%]
Cc1cc(C)n(CCN2CCOCC2)n1 [FF20-3241]	86

Same assay, conditions: tested concentration 2.5 mM; read-out: DdlB RA

Structure (SMILES)	remaining activity at 2500 µM [%]
CC(C)N1CCC(CCC(=O)O)CC1 [FF20-1518]	108
CC(C)Oc1c(OC(C)C)c(=O)c1=O [FF20-3460]	72
